Measured values: patent US20250388582A1, “NOVEL BICYCLIC HETEROARYL COMPOUND AND USE THEREOF” (ILDONG PHARMACEUTICAL CO., LTD., priority 2022, published 2025)

Tests used:
[1] = biological target: T1, human GST-PIKFYVE (Homo sapiens, UniProt Q9Y2I7); test: ADP-Glo kinase assay, enzyme inhibition activity against human PIKFYVE (Carna biosciences); type: biochemical; conditions: inhibitory activity at final compound concentration 10 nM; 1 hour at room temperature
T1 construct: GST; purchased Carna biosciences 11-118
T1 sequence (Q9Y2I7 whole entry): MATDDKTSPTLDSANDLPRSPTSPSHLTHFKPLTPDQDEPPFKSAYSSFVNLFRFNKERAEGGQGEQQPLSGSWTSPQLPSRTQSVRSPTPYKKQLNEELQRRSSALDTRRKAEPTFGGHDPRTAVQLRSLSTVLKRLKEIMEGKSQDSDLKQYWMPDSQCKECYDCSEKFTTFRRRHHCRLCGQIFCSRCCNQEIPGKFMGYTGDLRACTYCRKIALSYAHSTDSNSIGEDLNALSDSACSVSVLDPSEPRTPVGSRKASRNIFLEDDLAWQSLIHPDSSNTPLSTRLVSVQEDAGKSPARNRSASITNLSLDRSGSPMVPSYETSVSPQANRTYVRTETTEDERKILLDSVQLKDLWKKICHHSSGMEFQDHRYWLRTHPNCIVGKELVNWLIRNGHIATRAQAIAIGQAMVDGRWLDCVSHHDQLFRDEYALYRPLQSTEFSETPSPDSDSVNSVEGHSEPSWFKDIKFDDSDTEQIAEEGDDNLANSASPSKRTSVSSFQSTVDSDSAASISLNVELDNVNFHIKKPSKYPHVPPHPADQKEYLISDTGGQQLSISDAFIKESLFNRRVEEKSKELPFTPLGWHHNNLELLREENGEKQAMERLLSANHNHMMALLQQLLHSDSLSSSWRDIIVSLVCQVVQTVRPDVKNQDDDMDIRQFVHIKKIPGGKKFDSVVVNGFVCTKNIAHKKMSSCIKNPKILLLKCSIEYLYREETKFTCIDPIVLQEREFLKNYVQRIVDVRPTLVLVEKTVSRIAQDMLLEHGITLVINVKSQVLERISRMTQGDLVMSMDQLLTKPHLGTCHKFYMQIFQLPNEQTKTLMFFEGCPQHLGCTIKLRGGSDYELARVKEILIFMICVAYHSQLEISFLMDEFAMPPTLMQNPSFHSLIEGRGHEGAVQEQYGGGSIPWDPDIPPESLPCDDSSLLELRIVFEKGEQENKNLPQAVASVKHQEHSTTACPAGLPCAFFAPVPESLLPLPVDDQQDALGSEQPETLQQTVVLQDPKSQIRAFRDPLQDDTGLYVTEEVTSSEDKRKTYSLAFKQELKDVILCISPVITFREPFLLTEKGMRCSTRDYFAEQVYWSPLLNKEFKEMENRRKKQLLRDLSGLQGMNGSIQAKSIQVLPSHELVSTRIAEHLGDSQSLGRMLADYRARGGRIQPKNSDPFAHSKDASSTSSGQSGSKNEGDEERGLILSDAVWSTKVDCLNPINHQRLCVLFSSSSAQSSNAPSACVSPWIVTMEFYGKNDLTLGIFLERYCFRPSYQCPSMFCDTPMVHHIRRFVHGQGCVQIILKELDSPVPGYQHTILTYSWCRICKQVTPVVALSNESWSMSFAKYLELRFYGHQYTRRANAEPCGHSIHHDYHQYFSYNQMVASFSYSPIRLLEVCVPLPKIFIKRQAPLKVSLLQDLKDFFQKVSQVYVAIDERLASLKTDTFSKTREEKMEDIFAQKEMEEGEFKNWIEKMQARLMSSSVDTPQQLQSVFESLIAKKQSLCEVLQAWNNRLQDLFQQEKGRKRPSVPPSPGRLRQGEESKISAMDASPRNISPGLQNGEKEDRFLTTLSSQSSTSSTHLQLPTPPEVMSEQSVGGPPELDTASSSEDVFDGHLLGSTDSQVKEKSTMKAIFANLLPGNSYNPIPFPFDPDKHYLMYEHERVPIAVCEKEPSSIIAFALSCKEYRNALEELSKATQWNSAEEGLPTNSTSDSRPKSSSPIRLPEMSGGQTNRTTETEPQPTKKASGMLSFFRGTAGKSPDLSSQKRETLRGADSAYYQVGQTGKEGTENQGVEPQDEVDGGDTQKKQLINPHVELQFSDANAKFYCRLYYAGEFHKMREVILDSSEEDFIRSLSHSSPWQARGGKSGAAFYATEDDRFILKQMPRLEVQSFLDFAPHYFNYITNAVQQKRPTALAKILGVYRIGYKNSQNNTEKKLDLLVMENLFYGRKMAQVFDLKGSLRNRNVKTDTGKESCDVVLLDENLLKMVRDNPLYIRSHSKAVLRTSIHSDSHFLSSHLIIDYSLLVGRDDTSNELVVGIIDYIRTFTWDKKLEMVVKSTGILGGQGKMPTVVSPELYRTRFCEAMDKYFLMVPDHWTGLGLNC
Outline: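 Human GST-PIKFYVE (glutathione Sepharose-purified) was reacted with substrate and ATP for 1 h at room temperature in 50 mM MOPS, 1 mM DTT, pH 7.2, with compound at 10 nM final. ADP formed was read by ADP-Glo luminescence; inhibition was calculated against no-enzyme (100%) and no-compound (0%) controls.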

[2] = biological target: T2, PIKFYVE (Homo sapiens, UniProt Q9Y2I7); test: NanoBRET TE Intracellular Kinase Assay, interaction of PIKFYVE and compounds in HEK293 cells; type: cell-based; conditions: IC50 class from BRET; HEK293 cells expressing PIKFYVE-NanoLuc; 2 hours incubation
T2 construct: host or cells: HEK293 (ATCC, CRL-1573)
T2 sequence (Q9Y2I7 whole entry): as above
Experimental: To predict the efficacy of the compounds according to Example on PIKFYVE in humans, the interaction between PIKFYVE and the compounds was tested using the HEK293 cell line derived from human embryonic kidney (ATCC, CRL-1573) via NanoBRETT TE Intracellular Kinase Assay Service of Carna biosciences Inc., (Japan). The evaluation method provided by Carna biosciences Inc., was shown below and the NanoBRET™ TE Intracellular Kinase Assay, K-8 Kit (Promega, CS1810C88) was used.
The HEK-293 cells cultured in Opti-MEM™ I Reduced Serum Medium (Thermo Fisher, 11058-021) were transfected with Transfection Carrier DNA (Promega, E4881), PIKFYVE-NanoLuc Fusion Vector (Promega, CS1810C225), and FuGENE HD Transfection Reagent (Promega, E2311) to produce cells expressing genes combining PIKFYVE and NanoLuc, followed by culturing 100 μl (2×10^5 cells/ml) each in 96-well plates (Corning, 3917).
10× compounds according to Examples or Comparative Examples prepared by concentration in 1× NanoBRET™ tracer reagent and DMSO were reacted in 96-well plates and incubated for 2 hours in a 37° C., 5% CO2 incubator.
After the reaction was completed, 3× Complete NanoBRET™ Nano-Glo Substrate solution was added to each well, and the reaction was allowed to run for 2-3 minutes at room temperature before BRET was measured using a GloMax Discover Multimode Microplate Reader (Promega).

| Structure (SMILES) | ADP-Glo kinase assay (%, 10 nM) [1] [%] | IC50 [2] [nM] |
| --- | --- | --- |
| Cc1cccc(/C=N/Nc2nc(N3CCOCC3)nc3c2ncn3CC(=O)c2cccc(C(F)(F)F)c2)c1 [Example 44, (E)-2-(6-(2-(3-methylbenzylidene)hydrazinyl)-2-morpholino-9H-purin-9-yl)-1-(3-(trifluoromethyl)phenyl)ethan-1-one] | 62.80 | 20 to 30 |
| Cc1cccc(/C=N/Nc2nc(N3CCOCC3)nc3c2ncn3CC(=O)c2ccc(C(F)(F)F)cc2)c1 [Example 45, (E)-2-(6-(2-(3-methylbenzylidene)hydrazinyl)-2-morpholino-9H-purin-9-yl)-1-(4-(trifluoromethyl)phenyl)ethan-1-one] | 67.70 | 20 to 30 |
| Cc1cccc(/C=N/Nc2nc(N3CCOCC3)nc3c2ncn3CC(=O)c2cccc(F)c2)c1 [Example 46, (E)-1-(3-fluorophenyl)-2-(6-(2-(3-methylbenzylidene)hydrazinyl)-2-morpholino-9H-purin-9-yl)ethan-1-one] | 73.96 | 10 to 20 |
| Cc1cccc(/C=N/Nc2nc(N3CCOCC3)nc3c2ncn3CC(=O)c2cc(C(F)(F)F)ccn2)c1 [Example 52, (E)-2-(6-(2-(3-methylbenzylidene)hydrazinyl)-2-morpholino-9H-purin-9-yl)-1-(4-(trifluoromethyl)pyridin-2-yl)ethan-1-one] | 67.10 | 20 to 30 |
| Cc1cccc(/C=N/Nc2nc(N3CCOCC3)nc3c2ncn3CC(=O)c2ccc(F)cn2)c1 [Example 53, (E)-1-(5-fluoropyridin-2-yl)-2-(6-(2-(3-methylbenzylidene)hydrazinyl)-2-morpholino-9H-purin-9-yl)ethan-1-one] | 70.90 | 20 to 30 |
| Cc1cccc(/C=N/Nc2nc(N3CCOCC3)nc3c2ncn3CCc2ccccn2)c1 [Example 73, (E)-4-(6-(2-(3-methylbenzylidene)hydrazinyl)-9-(2-(pyridin-2-yl)ethyl)-9H-purin-2-yl)morpholine] | 80.98 | 10 to 20 |
| Cc1cccc(/C=N/Nc2nc(N3CCOCC3)nc3c2ncn3CC2(C)COC2)c1 [Example 74, (E)-4-(6-(2-(3-methylbenzylidene)hydrazinyl)-9-((3-methyloxetan-3-yl)methyl)-9H-purin-2-yl)morpholine] | 69.71 | 20 to 30 |
| Cc1cccc(/C=N/Nc2nc(N3CCOCC3)nc3c2ncn3C2CCN(C(=O)c3cccnc3)CC2)c1 [Example 87, (E)-(4-(6-(2-(3-methylbenzylidene)hydrazinyl)-2-morpholino-9H-purin-9-yl)piperidin-1-yl)(pyridin-3-yl)methanone] | 63.65 | 10 to 20 |
| Cc1cccc(/C=N/Nc2nc(N3CCOCC3)nc3c2ncn3C2CCN(C(=O)N3CCOCC3)CC2)c1 [Example 88, (E)-(4-(6-(2-(3-methylbenzylidene)hydrazinyl)-2-morpholino-9H-purin-9-yl)piperidin-1-yl)(morpholino)methanone] | 64.66 | 20 to 30 |
| Cc1cccc(/C=N/Nc2nc(N3CCOCC3)nc3c2ncn3C2CCN(C(=O)c3ccccc3)CC2)c1 [Example 89, (E)-(4-(6-(2-(3-methylbenzylidene)hydrazinyl)-2-morpholino-9H-purin-9-yl)piperidin-1-yl)(phenyl)methanone] | 76.44 | 10 to 20 |
| Cc1cccc(/C=N/Nc2nc(N3CCOCC3)nc3c2ncn3C2CCN(C(=O)N(C)C)CC2)c1 [Example 90, (E)-N,N-dimethyl-4-(6-(2-(3-methylbenzylidene)hydrazinyl)-2-morpholino-9H-purin-9-yl)piperidine-1-carboxamide] | 66.88 | 20 to 30 |
| COC(=O)N1CCC(n2cnc3c(N/N=C/c4cccc(C)c4)nc(N4CCOCC4)nc32)CC1 [Example 91, methyl (E)-4-(6-(2-(3-methylbenzylidene)hydrazinyl)-2-morpholino-9H-purin-9-yl)piperidine-1-carboxylate] | 73.33 | 10 to 20 |
| Cc1cccc(/C=N/Nc2nc(N3CCOCC3)nc3c2ncn3C2CCN(S(C)(=O)=O)CC2)c1 [Example 92, (E)-4-(6-(2-(3-methylbenzylidene)hydrazinyl)-9-(1-(methylsulfonyl)piperidin-4-yl)-9H-purin-2-yl)morpholino] | 61.82 | 20 to 30 |
| Cc1cccc(/C=N/Nc2nc(N3CCOCC3)nc3c2ncn3C2CCN(C(=O)c3ccncc3)CC2)c1 [Example 93, (E)-(4-(6-(2-(3-methylbenzylidene)hydrazinyl)-2-morpholino-9H-purin-9-yl)piperidin-1-yl)(pyridin-4-yl)methanone] | 66.78 | 20 to 30 |
| Cc1cccc(/C=N/Nc2nc(N3CCOC[C@@H]3C)nc3c2ncn3-c2cccnc2)c1 [Example 97, (S,E)-3-methyl-4-(6-(2-(3-methylbenzylidene)hydrazinyl)-9-(pyridin-3-yl)-9H-purin-2-yl)morpholine] | 78.47 | 10 to 20 |
| Cc1cccc(/C=N/Nc2nc(N3CCOCC3)nc3c2ncn3-c2ccc(C(F)(F)F)cc2)c1 [Example 104, (E)-4-(6-(2-(3-methylbenzylidene)hydrazinyl)-9-(4-(trifluoromethyl)phenyl)-9H-purin-2-yl)morpholine] | 68.18 | 10 to 20 |

Results, then the molecule that gave them:

| ADP-Glo kinase assay (%, 10 nM) [1] [%] | IC50 [2] [nM] | Structure (SMILES) |
| --- | --- | --- |
| 78.87 | ≤ 10 | Cc1cccc(/C=N/Nc2nc(N3CCOCC3)nc3c2ncn3CC(=O)c2cccc(Cl)c2)c1 [Example 49, (E)-1-(3-chlorophenyl)-2-(6-(2-(3-methylbenzylidene)hydrazinyl)-2-morpholino-9H-purin-9-yl)ethan-1-one] |
| 83.61 | ≤ 10 | Cc1cccc(/C=N/Nc2nc(N3CCOCC3)nc3c2ncn3CCc2cccnc2)c1 [Example 80, (E)-4-(6-(2-(3-methylbenzylidene)hydrazinyl)-9-(2-(pyridin-3-yl)ethyl)-9H-purin-2-yl)morpholine] |
| 87.24 | ≤ 10 | Cc1cccc(/C=N/Nc2nc(N3CCOCC3)nc3c2ncn3-c2ccccn2)c1 [Example 99, (E)-4-(6-(2-(3-methylbenzylidene)hydrazinyl)-9-(pyridin-2-yl)-9H-purin-2-yl)morpholine] |
| 83.22 | ≤ 10 | Cc1cccc(/C=N/Nc2nc(N3CCOCC3)nc3c2ncn3-c2ccc(Cl)cc2)c1 [Example 100, (E)-4-(9-(4-chlorophenyl)-6-(2-(3-methylbenzylidene)hydrazinyl)-9H-purin-2-yl)morpholine] |
| 91.19 | ≤ 10 | Cc1cccc(/C=N/Nc2nc(N3CCOCC3)nc3c2ncn3-c2ccnc(O)c2)c1 [Example 102, (E)-4-(6-(2-(3-methylbenzylidene)hydrazinyl)-2-morpholino-9H-purin-9-yl)pyridin-2-ol] |
| 91.20 | ≤ 10 | Cc1cccc(/C=N/Nc2nc(N3CCOCC3)nc3c2ncn3-c2ccncc2)c1 [Example 103, (E)-4-(6-(2-(3-methylbenzylidene)hydrazinyl)-9-(pyridin-4-yl)-9H-purin-2-yl)morpholine] |
| 82.62 | ≤ 10 | Cc1cccc(-c2ccn(-c3nc(N4CCOCC4)nc4c3ncn4-c3ccncc3)n2)c1 [Example 107, 4-(9-(pyridin-4-yl)-6-(3-(m-tolyl)-1H-pyrazol-1-yl)-9H-purin-2-yl)morpholine] |
| 80.35 | ≤ 10 | COc1ccc(-n2cnc3c(N/N=C/c4cccc(C)c4)nc(N4CCOCC4)nc32)nc1 [Example 108, (E)-4-(9-(5-methoxypyridin-2-yl)-6-(2-(3-methylbenzylidene)hydrazinyl)-9H-purin-2-yl)morpholine] |
| 88.60 | ≤ 10 | Cc1cccc(/C=N/Nc2nc(N3CCOCC3)nc3c2ncn3-c2ccc(C)nc2)c1 [Example 110, (E)-4-(6-(2-(3-methylbenzylidene)hydrazinyl)-9-(6-methylpyridin-3-yl)-9H-purin-2-yl)morpholine] |
| 89.10 | ≤ 10 | C(=N\Nc1nc(N2CCOCC2)nc2c1ncn2-c1ccncc1)/c1c[nH]c2ccccc12 [Example 112, (E)-4-(6-(2-((1H-indol-3-yl)methylene)hydrazinyl)-9-(pyridin-4-yl)-9H-purin-2-yl)morpholine] |
| 87.10 | ≤ 10 | COc1ccc(-n2cnc3c(N/N=C/c4cccc(C)c4)nc(N4CCOCC4)nc32)cn1 [Example 113, (E)-4-(9-(6-methoxypyridin-3-yl)-6-(2-(3-methylbenzylidene)hydrazinyl)-9H-purin-2-yl)morpholine] |
